The results in this text go back to US8211412B2, “Method for skin whitening” (Shiseido Company Ltd., priority 2009, dated 2012).

This experiment deals with Mouse B16 melanoma cells. In words: Melanin production inhibition test. The experiment is classed as cell-based. Conditions: 3 days after addition, graded by minimum non-cytotoxic concentration at which ratio of melanin amount was 80% or less. As to the method: A test for melanin production inhibition by the compounds of the formula (1) was conducted. The test method is as follows.
Melanin Production Inhibition Test
(1) Inoculation of Cells and Addition of Test Substances
Mouse B16 melanoma cells were inoculated in a six well plate at 100,000 cells/well. The next day, test substance solutions (solvent: DMSO) were added.
(2) Cell Proliferation Test
Three days after the addition of the test substance solution, the medium was removed by aspiration. Then 1 ml of EMEM medium containing 10% Alamar Blue solution was added, and a reaction was allowed to proceed at 37° C. After 30 minutes, 100 μL of the reaction mixture was transferred to a 96 well plate and fluorescence was measured at an excitation wavelength of 544 nm and a measurement wavelength of 590 nm. Using the value thus measured as a relative value of cell count, a ratio of the cell count (% cell count) of the test substance-added group to the test substance-absent group (group in which only the solvent was added) was calculated. […] It was determined that a compound having the % cell count of 80% or more was non-cytotoxic, and that a compound having the % cell count of less than 80% was cytotoxic.
(3) Quantification of Melanin
The cells after the cell proliferation test were washed with PBS three times, and then lysed by addition of 200 μL of 1M NaOH to measure an absorbance at 475 nm. […]

`CC1(C)CSC(Nc2ccccc2)=N1` [Compound 1, 4,4-dimethyl-N-phenyl-4,5-dihydrothiazol-2-amine]: the “Inhibitory effect on melanin production” value is reported as “⊚ (the minimum concentration for inhibition of melanin production was 1 ppm or less)”.
